Substitutions are numbered along the chain they refer to. Where a SMILES comes first, the peptide text is derived from it. Bridges are numbered along the chain shown (N, C = ends).
Legend:
Assay in all cases: ERK1/2 phosphorylation
Format in all cases: cell-based
[1] = target: T1, hCTR D373A (Homo sapiens, UniProt P30988, D373A); settings: CV1-FlpIn cells, mean ± S.E.M.; for Emax: pERK maximal response
T1 construct: c-Myc (N); expressed in transfected cells
T1 sequence (P30988 25-474 D373A): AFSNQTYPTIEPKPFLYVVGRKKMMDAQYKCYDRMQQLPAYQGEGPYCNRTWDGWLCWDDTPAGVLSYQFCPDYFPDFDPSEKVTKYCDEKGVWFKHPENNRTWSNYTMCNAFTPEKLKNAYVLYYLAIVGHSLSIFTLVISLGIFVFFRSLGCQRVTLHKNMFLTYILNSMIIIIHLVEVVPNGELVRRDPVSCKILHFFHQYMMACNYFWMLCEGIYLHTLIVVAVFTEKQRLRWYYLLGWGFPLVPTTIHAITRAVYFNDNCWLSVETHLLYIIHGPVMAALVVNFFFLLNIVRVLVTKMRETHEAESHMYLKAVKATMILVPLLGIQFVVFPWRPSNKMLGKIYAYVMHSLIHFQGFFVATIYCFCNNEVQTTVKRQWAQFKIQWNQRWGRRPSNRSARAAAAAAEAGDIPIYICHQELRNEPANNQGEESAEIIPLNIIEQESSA
Procedure, shortened: (§1)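 Cells were seeded at 2.5 × 10^4 cells/well and cultured overnight before stimulation. ERK1/2 phosphorylation was normalized to the maximal response to 10% FBS measured at 6 min. EC50 and Emax came from a 3-parameter logistic fit of concentration-response curves.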

[2] = target: T2, hCTR P363A (Homo sapiens, UniProt P30988, P363A); settings: CV1-FlpIn cells, mean ± S.E.M.; for Emax: pERK maximal response
T2 construct: expressed in transfected cells
T2 sequence (P30988 25-474 P363A): T1 sequence (P30988 25-474 D373A) with P339A, A349D
Procedure, shortened: as §1

[3] = target: T3, hCTR R362A (Homo sapiens, UniProt P30988, R362A); settings: CV1-FlpIn cells, mean ± S.E.M.; for Emax: pERK maximal response; for EC50: pERK, three-parameter logistic fit
T3 construct: expressed in transfected cells
T3 sequence (P30988 25-474 R362A): T1 sequence (P30988 25-474 D373A) with R338A, A349D
Procedure, shortened: as §1

[4] = target: T4, hCTR S364A (Homo sapiens, UniProt P30988, S364A); settings: CV1-FlpIn cells, mean ± S.E.M.; for Emax: pERK maximal response; for EC50: pERK, three-parameter logistic fit
T4 construct: c-Myc (N); expressed in transfected cells
T4 sequence (P30988 25-474 S364A): T1 sequence (P30988 25-474 D373A) with S340A, A349D
Procedure, shortened: as §1

[5] = target: T5, hCTR Y372A (Homo sapiens, UniProt P30988, Y372A); settings: CV1-FlpIn cells, mean ± S.E.M.; for Emax: pERK maximal response
T5 construct: c-Myc (N); expressed in transfected cells
T5 sequence (P30988 25-474 Y372A): T1 sequence (P30988 25-474 D373A) with Y348A, A349D
Procedure, shortened: as §1

[6] = pERK, three-parameter logistic fit

EC50 [3] [nM]	EC50 [4] [nM]	EC50 [1, 6] [nM]	EC50 [2, 6] [nM]	EC50 [5, 6] [nM]	SMILES	Emax [1] [%]	Emax [2] [%]	Emax [3] [%]	Emax [4] [%]	Emax [5] [%]
					CC[C@H](C)[C@H](NC(=O)[C@H](C)NC(=O)[C@@H](NC(=O)[C@H](CCC(N)=O)NC(=O)[C@@H]1CCCN1C(=O)[C@H](Cc1ccccc1)NC(=O)[C@@H](NC(=O)[C@H](Cc1c[nH]cn1)NC(=O)[C@H](Cc1ccccc1)NC(=O)[C@H](CCCCN)NC(=O)[C@H](CC(N)=O)NC(=O)[C@H](Cc1ccccc1)NC(=O)[C@H](CC(=O)O)NC(=O)[C@H](CCC(N)=O)NC(=O)[C@@H](NC(=O)[C@H](Cc1ccc(O)cc1)NC(=O)[C@@H](NC(=O)CNC(=O)[C@H](CC(C)C)NC(=O)[C@H](CCSC)NC(=O)[C@@H]1CSSC[C@H](N)C(=O)NCC(=O)N[C@@H](CC(N)=O)C(=O)N[C@@H](CC(C)C)C(=O)N[C@@H](CO)C(=O)N[C@@H]([C@@H](C)O)C(=O)N1)[C@@H](C)O)[C@@H](C)O)[C@@H](C)O)[C@@H](C)O)C(=O)NCC(=O)N[C@H](C(=O)NCC(=O)N[C@@H](C)C(=O)N1CCC[C@H]1C(N)=O)C(C)C [hCT]	71 ± 7	64 ± 6	64 ± 7	135 ± 10	46 ± 4
112	10.7				CC(C)C[C@H](NC(=O)CNC(=O)[C@H](C)NC(=O)[C@H](CC(C)C)NC(=O)[C@H](CCCNC(=N)N)NC(=O)[C@H](Cc1cnc[nH]1)NC(=O)[C@@H](NC(=O)[C@@H](NC(=O)[C@@H]1CSSC[C@H](NC(=O)[C@H](C)N)C(=O)N[C@@H](CC(=O)O)C(=O)N[C@@H]([C@@H](C)O)C(=O)N[C@@H](C)C(=O)N[C@@H]([C@@H](C)O)C(=O)N1)C(C)C)[C@@H](C)O)C(=O)N[C@@H](CC(C)C)C(=O)N[C@@H](CO)C(=O)N[C@@H](CCCNC(=N)N)C(=O)N[C@@H](CO)C(=O)NCC(=O)NCC(=O)N[C@H](C(=O)N[C@H](C(=O)N[C@@H](CCCCN)C(=O)N[C@@H](CC(N)=O)C(=O)N[C@@H](CC(N)=O)C(=O)N[C@@H](Cc1ccccc1)C(=O)N[C@H](C(=O)N1CCC[C@H]1C(=O)N[C@H](C(=O)N[C@@H](CC(N)=O)C(=O)N[C@H](C(=O)NCC(=O)N[C@@H](CO)C(=O)N[C@@H](CCCCN)C(=O)N[C@@H](C)C(=O)N[C@@H](Cc1ccccc1)C(N)=O)C(C)C)[C@@H](C)O)C(C)C)C(C)C)C(C)C [hαCGRP]			31 ± 8	54 ± 6	
7.59	3.63	4.9	5.75	19.1	CSCC[C@H](NC(=O)CNC(=O)[C@H](CO)NC(=O)[C@H](Cc1ccccc1)NC(=O)[C@H](CCCNC(=N)N)NC(=O)[C@H](Cc1c[nH]cn1)NC(=O)[C@H](Cc1ccccc1)NC(=O)[C@H](CC(N)=O)NC(=O)[C@H](CC(N)=O)NC(=O)[C@H](CC(C)C)NC(=O)[C@H](CC(N)=O)NC(=O)[C@H](CCCNC(=N)N)NC(=O)[C@H](Cc1c[nH]c2ccccc12)NC(=O)[C@H](Cc1ccc(O)cc1)NC(=O)[C@H](C)NC(=O)[C@H](CO)NC(=O)[C@H](CC(C)C)NC(=O)[C@@H](NC(=O)[C@@H]1CSSC[C@H](N)C(=O)N[C@@H](CO)C(=O)N[C@@H](CC(N)=O)C(=O)N[C@@H](CC(C)C)C(=O)N[C@@H](CO)C(=O)N[C@@H]([C@@H](C)O)C(=O)N1)C(C)C)C(=O)NCC(=O)N[C@@H](Cc1ccccc1)C(=O)NCC(=O)N1CCC[C@H]1C(=O)N[C@@H](CCC(=O)O)C(=O)N[C@H](C(=O)N1CCC[C@H]1C(N)=O)[C@@H](C)O [pCT] (H-CSNLSTCVLSAYWRNLNNFHRFSGMGFGPETP-NH2; disulfide 1-7)	32 ± 4	39 ± 2	45 ± 4	127 ± 12	26 ± 4
					CC(C)C[C@H](NC(=O)[C@H](CC(N)=O)NC(=O)[C@H](CC(N)=O)NC(=O)[C@H](CO)NC(=O)[C@H](CO)NC(=O)[C@H](CCCNC(=N)N)NC(=O)[C@@H](NC(=O)[C@H](CC(C)C)NC(=O)[C@H](Cc1ccccc1)NC(=O)[C@H](CC(N)=O)NC(=O)[C@H](C)NC(=O)[C@H](CC(C)C)NC(=O)[C@H](CCCNC(=N)N)NC(=O)[C@H](CCC(N)=O)NC(=O)[C@@H](NC(=O)[C@H](C)NC(=O)[C@@H]1CSSC[C@H](NC(=O)[C@@H](N)CCCCN)C(=O)N[C@@H](CC(N)=O)C(=O)N[C@@H]([C@@H](C)O)C(=O)N[C@@H](C)C(=O)N[C@@H]([C@@H](C)O)C(=O)N1)[C@@H](C)O)C(C)C)C(=O)NCC(=O)N1CCC[C@H]1C(=O)N[C@H](C(=O)N[C@@H](CC(C)C)C(=O)N1CCC[C@H]1C(=O)N1CCC[C@H]1C(=O)N[C@H](C(=O)N[C@@H](CC(N)=O)C(=O)N[C@H](C(=O)NCC(=O)N[C@@H](CO)C(=O)N[C@@H](CC(N)=O)C(=O)N[C@H](C(=O)N[C@@H](Cc1ccc(O)cc1)C(N)=O)[C@@H](C)O)C(C)C)[C@@H](C)O)C(C)C [rAmy]		28 ± 9	36 ± 7	66 ± 9	
					CC(C)C[C@H](NC(=O)[C@H](CCCCN)NC(=O)CNC(=O)[C@H](CC(C)C)NC(=O)[C@@H](NC(=O)[C@@H]1CSSC[C@H](N)C(=O)N[C@@H](CO)C(=O)N[C@@H](CC(N)=O)C(=O)N[C@@H](CC(C)C)C(=O)N[C@@H](CO)C(=O)N[C@@H]([C@@H](C)O)C(=O)N1)C(C)C)C(=O)N[C@@H](CO)C(=O)N[C@@H](CCC(N)=O)C(=O)N[C@@H](CCC(=O)O)C(=O)N[C@@H](CC(C)C)C(=O)N[C@@H](Cc1c[nH]cn1)C(=O)N[C@@H](CCCCN)C(=O)N[C@@H](CC(C)C)C(=O)N[C@@H](CCC(N)=O)C(=O)N[C@H](C(=O)N[C@@H](Cc1ccc(O)cc1)C(=O)N1CCC[C@H]1C(=O)N[C@@H](CCCNC(=N)N)C(=O)N[C@H](C(=O)N[C@@H](CC(N)=O)C(=O)N[C@H](C(=O)NCC(=O)N[C@@H](CO)C(=O)NCC(=O)N[C@H](C(=O)N1CCC[C@H]1C(N)=O)[C@@H](C)O)[C@@H](C)O)[C@@H](C)O)[C@@H](C)O [sCT]	103 ± 11	95 ± 5	107 ± 10	106 ± 4	39 ± 3
